Test results: patent US9802992B2, “Cell into which protein, which can serve as polymerization nucleus of protein polymer, or polymer thereof is introduced, and method for production of the cell” (TOKYO ME[…] OF MEDICAL SCIENCE, priority 2005, dated 2017)

Experiments:
[1] = biological target: T1, α-synuclein (Homo sapiens, UniProt P37840); experiment: Inhibition of fibrillization of α-synuclein in vitro (thioflavin S fluorescence); type: biochemical; details: 2 mg/mL α-synuclein, shaking at 37° C., 20 μM Gossypetin, compared with sample without Gossypetin (FIG. 7)
T1 construct: made in house; host or cells: E. coli BL21(DE3), pRK172 vector
Method: Gossypetin, a polyphenol compound may be taken as an example of a candidate substance. Gossypetin is a flavonol contained in Gossypium herbaceum LINNE and is polyphenol compound used as a food additive. For example, it is possible to investigate whether Gossypetin inhibits fibrillization of α-synuclein in vitro by incubating α-synuclein in the presence of Gossypetin, adding thioflavin S to the solution after the reaction and measuring the fluorescence intensity. Thioflavin S is a test reagent which emits fluorescence upon binding to a protein which can serve as a polymerization nucleus of a protein polymer, or a protein polymer thereof, which are rich in β-sheet structure and which therefore can be used to determine the presence or absence of a protein which can serve as a polymerization nucleus of a protein polymer, or a protein polymer thereof. In contrast, since α-synuclein fibrils are rich in β-sheet structure, if Gossypetin inhibits fibrillization of α-synuclein, the fluorescence intensity should be lower than samples to which Gossypetin has not been added.
[…] Fluorescence intensity was measured using a Hitachi F4000 spectrophotometer (excitation wavelength 440 nm, fluorescence wavelength 520 nm).
2 mg/mL of α-synuclein was incubated with shaking at 37° C. in the presence or absence of 20 μM of Gossypetin. Fibril formation was measured by thioflavin S fluorescence. […]

[2] = test system: SH-SY5Y cells into which α-synuclein plasmid and fibrils are introduced (WT+FαS cells); experiment: Cell death assay (LDH leakage) in the cellular model of α-synuclein proteinopathy; type: cell-based; details: Gossypetin (20 μM), incubated three days; without polyphenol approximately 50% (FIG. 8)
Method: A cell death assay was performed using cells into which pcDNA3-α-syn vector and α-synuclein fibrils are introduced, and which had been incubated for three days either in the presence or the absence of a fibrillization inhibitor. Gossypetin (20 μM) which is a type of polyphenol was used as the fibrillization inhibitor.
After incubation for three days, a portion of the cell media in the culture was harvested. The cells from the remaining media were prepared as a Tris-soluble fraction in the same manner as the Tris-soluble fraction described above. A cell death assay was performed on the harvested media and the Tris-soluble fraction using a CYTOTOX 96™ Non-Radioactive Cytotoxicity Assay Kit (Promega). The method was performed in accordance with the explanatory material accompanying the kit.
A cell death assay was performed on the following three types of cells: untreated cells (none), FαS cells into which only α-synuclein fibril was introduced, and WT+FαS cells into which fibril and α-synuclein plasmid DNA were introduced. After culturing the cells for three days, cell death was evaluated by lactate dehydrogenase (LDH) leakage assay. This assay is based on determining how much LDH originally inside the cell has leaked outside the cell as a result of cell death.
Gossypetin was added to SH-SY5Y cells into which α-synuclein plasmid and fibrils are introduced, and incubated for three days. […]

Structure (SMILES): O=c1c(O)c(-c2ccc(O)c(O)c2)oc2c(O)c(O)cc(O)c12 [Gossypetin]
- thioflavin S fluorescence intensity (fibril formation of α-synuclein) [1]: conspicuous decrease
- rate of cell death [2]: conspicuous inhibition
